Reference: patent US20090270407A1, “FUNGICIDAL ISOXAZOLIDINES” (E. I. DU PONT DE NEMOURS AND COMPANY, priority 2008, published 2009)
Marks after values point to notes of the source that are not given here.

Tests used:
Settings in all cases: 100 = 100 % disease control, 0 = no disease control relative to controls
Septoria nodorum = test: Test C: wheat glume blotch, preventive spray on wheat seedlings, visual disease rating
Description: (An asterisk “*” next to the rating value indicates a 40 ppm test suspension.)
The test suspension was sprayed to the point of run-off on wheat seedlings. The following day the seedlings were inoculated with a spore suspension of Septoria nodorum (the causal agent of wheat glume blotch) and incubated in a saturated atmosphere at 20° C. for 48 h, and then moved to a growth chamber at 20° C. for 7 days, after which time visual disease ratings were made.
A dash (−) indicates no test results. All results are for 200 ppm except where followed by “*” which indicates 40 ppm.

[1] = tested on: Puccinia recondita f. sp. tritici; test: Test B: wheat leaf rust, preventive spray on wheat seedlings, visual disease rating
From the text: (§1) General protocol for preparing test suspensions for Tests A-I: The test compounds were first dissolved in acetone in an amount equal to 3% of the final volume and then suspended at the desired concentration (in ppm) in acetone and purified water (50/50 mix) containing 250 ppm of the surfactant Trem® 014 (polyhydric alcohol esters). The resulting test suspensions were then used in Tests A-I. Spraying a 200 ppm test suspension to the point of run-off on the test plants was the equivalent of a rate of 500 g/ha.
The test suspension was sprayed to the point of run-off on wheat seedlings. The following day the seedlings were inoculated with a spore suspension of Puccinia recondita f. sp. tritici (the causal agent of wheat leaf rust) and incubated in a saturated atmosphere at 20° C. for 24 h, and then moved to a growth chamber at 20° C. for 7 days, after which time visual disease ratings were made.
(§2) All results are for 200 ppm except where followed by “*” which indicates 40 ppm.

Botrytis cinerea = test: Test E: tomato Botrytis, preventive spray on tomato seedlings, visual disease rating
From the text: as §1
The test suspension was sprayed to the point of run-off on tomato seedlings. The following day the seedlings were inoculated with a spore suspension of Botrytis cinerea (the causal agent of tomato Botrytis) and incubated in saturated atmosphere at 20° C. for 48 h, and then moved to a growth chamber at 24° C. for 3 additional days, after which time visual disease ratings were made.
as §2

Alternaria solani = test: Test F: tomato early blight, preventive spray on tomato seedlings, visual disease rating
Septoria tritici = test: Test D: wheat leaf blotch, preventive spray on wheat seedlings, visual disease rating; assay type: in vivo
From the text: A dash (−) indicates no test results.

[2] = tested on: Erysiphe graminis f. sp. tritici; test: Test A: wheat powdery mildew, preventive spray on wheat seedlings, visual disease rating
From the text: General protocol for preparing test suspensions for Tests A-I: The test compounds were first dissolved in acetone in an amount equal to 3% of the final volume and then suspended at the desired concentration (in ppm) in acetone and purified water (50/50 mix) containing 250 ppm of the surfactant Trem® 014 (polyhydric alcohol esters). The resulting test suspensions were then used in Tests A-I. Spraying a 200 ppm test suspension to the point of run-off on the test plants was the equivalent of a rate of 500 g/ha. (An asterisk “*” next to the rating value indicates a 40 ppm test suspension.)
The test suspension was sprayed to the point of run-off on wheat seedlings. The following day the seedlings were inoculated with a spore dust of Erysiphe graminis f. sp. tritici (the causal agent of wheat powdery mildew) and incubated in a growth chamber at 20° C. for 8 days, after which time visual disease ratings were made.

CN1OC(C)(c2cccnc2)CC1c1cccc2ccccc12 (mixture of isomers) [Compound 62]
Test C disease control rating (Septoria nodorum; 200 ppm): 97% | Test B disease control rating ([1]; 200 ppm): 17% | Test E disease control rating (Botrytis cinerea; 200 ppm): 88% | Test F disease control rating (Alternaria solani; 200 ppm): 91% | Test D disease control rating (Septoria tritici; 200 ppm): 80% | Test A disease control rating ([2]; 200 ppm): 97%

CN1OC(C)(c2cccnc2)CC1c1ccc(-c2ccnn2CC(F)(F)F)cc1 (mixture of isomers) [Compound 63]
Test C disease control rating (Septoria nodorum; 200 ppm): 0% | Test B disease control rating ([1]; 200 ppm): 0% | Test E disease control rating (Botrytis cinerea; 200 ppm): 0% | Test F disease control rating (Alternaria solani; 200 ppm): 8% | Test D disease control rating (Septoria tritici; 200 ppm): 36% | Test A disease control rating ([2]; 200 ppm): 21%

COc1ccc(C2CC(C)(c3cccnc3)ON2C)c2ccccc12 (mixture of isomers) [Compound 68]
Test C disease control rating (Septoria nodorum; 200 ppm): 0% | Test B disease control rating ([1]; 200 ppm): 0% | Test E disease control rating (Botrytis cinerea; 200 ppm): 0% | Test F disease control rating (Alternaria solani; 200 ppm): 0% | Test D disease control rating (Septoria tritici; 200 ppm): 65% | Test A disease control rating ([2]; 200 ppm): 0%

CN1OC(C)(c2cccnc2)CC1c1ccc(-c2ccn(CC(F)(F)F)n2)cc1 (mixture of isomers) [Compound 80]
Test C disease control rating (Septoria nodorum; 200 ppm): 0% | Test B disease control rating ([1]; 200 ppm): 0% | Test E disease control rating (Botrytis cinerea; 200 ppm): 0% | Test F disease control rating (Alternaria solani; 200 ppm): 0% | Test D disease control rating (Septoria tritici; 200 ppm): 94% | Test A disease control rating ([2]; 200 ppm): 0%

CN1OC(C)(c2cccnc2)CC1c1cccc(I)c1 (mixture of isomers) [Compound 87]
Test C disease control rating (Septoria nodorum; 200 ppm): 0% | Test B disease control rating ([1]; 200 ppm): 0% | Test E disease control rating (Botrytis cinerea; 200 ppm): 0% | Test F disease control rating (Alternaria solani; 200 ppm): 0% | Test D disease control rating (Septoria tritici; 200 ppm): 84% | Test A disease control rating ([2]; 200 ppm): 0%

CN1OC(C)(c2cccnc2)CC1c1ccccc1I (mixture of isomers) [Compound 88]
Test C disease control rating (Septoria nodorum; 200 ppm): 0% | Test B disease control rating ([1]; 200 ppm): 27% | Test E disease control rating (Botrytis cinerea; 200 ppm): 0% | Test F disease control rating (Alternaria solani; 200 ppm): 0% | Test D disease control rating (Septoria tritici; 200 ppm): 70% | Test A disease control rating ([2]; 200 ppm): 81%

CN1OC(C)(c2cccnc2)CC1c1cccc2c1OC(F)(F)O2 (mixture of isomers) [Compound 89]
Test C disease control rating (Septoria nodorum; 200 ppm): 0% | Test B disease control rating ([1]; 200 ppm): 0% | Test E disease control rating (Botrytis cinerea; 200 ppm): 0% | Test F disease control rating (Alternaria solani; 200 ppm): 16% | Test D disease control rating (Septoria tritici; 200 ppm): 36% | Test A disease control rating ([2]; 200 ppm): 0%

CN(C)c1ccc(C2CC(C)(c3cccnc3)ON2C)c2ccccc12 (mixture of isomers) [Compound 90]
Test C disease control rating (Septoria nodorum; 200 ppm): 0% | Test B disease control rating ([1]; 200 ppm): 0% | Test E disease control rating (Botrytis cinerea; 200 ppm): 0% | Test F disease control rating (Alternaria solani; 200 ppm): 0% | Test D disease control rating (Septoria tritici; 200 ppm): 35% | Test A disease control rating ([2]; 200 ppm): 0%

Cc1cccc(C2CC(C)(c3cccnc3)ON2C)c1 (mixture of isomers) [Compound 98]
Test C disease control rating (Septoria nodorum; 40 ppm (marked *)): 0* % | Test B disease control rating ([1]; 40 ppm (marked *)): 0* % | Test E disease control rating (Botrytis cinerea; 40 ppm (marked *)): 0* % | Test F disease control rating (Alternaria solani; 40 ppm (marked *)): 0* % | Test D disease control rating (Septoria tritici; 40 ppm (marked *)): 3* % | Test A disease control rating ([2]; 40 ppm (marked *)): 0* %

Cc1ccccc1C1CC(C)(c2cccnc2)ON1C (mixture of isomers) [Compound 99]
Test C disease control rating (Septoria nodorum; 200 ppm): 0% | Test B disease control rating ([1]; 200 ppm): 17% | Test E disease control rating (Botrytis cinerea; 200 ppm): 0% | Test F disease control rating (Alternaria solani; 200 ppm): 0% | Test D disease control rating (Septoria tritici; 200 ppm): 18% | Test A disease control rating ([2]; 200 ppm): 0%

COc1ccccc1C1CC(C)(c2cccnc2)ON1C (mixture of isomers) [Compound 100]
Test C disease control rating (Septoria nodorum; 200 ppm): 0% | Test B disease control rating ([1]; 200 ppm): 0% | Test E disease control rating (Botrytis cinerea; 200 ppm): 26% | Test F disease control rating (Alternaria solani; 200 ppm): 8% | Test D disease control rating (Septoria tritici; 200 ppm): 13% | Test A disease control rating ([2]; 200 ppm): 21%

COC(=O)c1ccc(C2CC(C)(c3cccnc3)ON2C)cc1 (stereo not drawn) [Compound 39]
Test C disease control rating (Septoria nodorum; 200 ppm): 51% | Test B disease control rating ([1]; 200 ppm): 0% | Test E disease control rating (Botrytis cinerea; 200 ppm): 90% | Test F disease control rating (Alternaria solani; 200 ppm): 0% | Test D disease control rating (Septoria tritici; 200 ppm): 32% | Test A disease control rating ([2]; 200 ppm): 88%

CN1OC(C)(c2cccnc2)CC1c1ccc(-n2ccc(-c3ccccc3)n2)cc1 (stereo not drawn) [Compound 40]
Test C disease control rating (Septoria nodorum; 40 ppm (marked *)): 64* % | Test B disease control rating ([1]; 40 ppm (marked *)): 0* % | Test E disease control rating (Botrytis cinerea; 40 ppm (marked *)): 75* % | Test F disease control rating (Alternaria solani; 40 ppm (marked *)): 0* % | Test D disease control rating (Septoria tritici; 40 ppm (marked *)): 77* % | Test A disease control rating ([2]; 40 ppm (marked *)): 78* %

CN1OC(C)(c2cccnc2)CC1c1ccc(-n2ccc(-c3ccccc3)n2)cc1 (stereo not drawn) [Compound 41]
Test C disease control rating (Septoria nodorum; 40 ppm (marked *)): 0* % | Test B disease control rating ([1]; 40 ppm (marked *)): 0* % | Test E disease control rating (Botrytis cinerea; 40 ppm (marked *)): 0* % | Test F disease control rating (Alternaria solani; 40 ppm (marked *)): 0* % | Test D disease control rating (Septoria tritici; 40 ppm (marked *)): 65* % | Test A disease control rating ([2]; 40 ppm (marked *)): 78* %
